US20220017941A1, “ELECTROANALYTICAL DETERMINATION OF LEUKOCYTE ESTERASE” (Board of Regents, the University of Texas System, priority 2020, published 2022)

Legend:
[1] = test system: leukocyte esterase (LE); test: Internally calibrated electrochemical continuous enzyme assay (ICECEA) of LE with ester substrate coupled to alcohol oxidase; type: biochemical, human; settings: pH 7.40 PBS
Protocol: The original suspension of human leukocytes was diluted 10 times with a pH 7.40 0.050 M phosphate buffer saline (PBS, 154 mM NaCl) solution that contained 10 vol. % DMSO and left for 10 min to lyse the leukocytes chemically. The suspension was then sonicated for 30 s (Q125 Qsonica, 20% power) to complete the lysing process. The sonication was done in 5 s intervals with 5 s rest cycles to minimize the enzyme deactivation due to solution overheating. The lysate was centrifuged at 10000×g for 5 min, and the supernatant was transferred to a 1.70-mL microcentrifuge tube (Corning, N.Y.) and stored in a freezer at −20° C. when not in use.
Assays. The assays of LE were conducted at a N-CNT electrode by following the protocol of internally calibrated electrochemical continuous enzyme assay (ICECEA) (Zhang et. al., M.; Anal. Chem. 2013, 85, 6026-6032; Bekhit et. al., Anal. Chem. 2019, 91, 3163-3169).
(§1) The assay solution (5.00 mL) was made of pH 7.40 PBS containing both methyl pyruvate (MP) and alcohol oxidase (AOx). The current flowing through a N-CNT electrode at −0.20 V was measured continuously while a stirred assay solution was sequentially spiked with three 50-μL calibrating aliquots of H2O2 and one 50-μL aliquot of LE. This produced an ICECEA amperogram with the three current steps providing a calibration slope CS and an ascending linear current segment having an assay slope AS. The ICECEA amperograms shown were shortened to display only the linear portion of ascending current segment.
The AS and CS slopes were used to calculate the unit U of the enzymatic activity of LE:
By definition, one unit (U) of activity was equal to the amount of LE that consumed 1.0 micromole of MP per 1.0 min in a pH 7.40 PBS solution at room temperature (21° C.).
Kinetic Testing. The hypothesis formulated above was tested first by determining the kinetics of reaction 1. To ensure that the reaction was rate-limiting, the excess of AOx (25 mU) over LE (3 mU) was used. In addition, the concentration of H2O2 was kept within a linear range of calibration plot (0.50-40 μM) to avoid the non-linearity of electrode response to H2O2 from affecting kinetic measurements.
Assay of LE. The analytical merit of the coupling of reactions 1 and 2 via methanol was evaluated by using the MP to assay LE in PBS samples. To conduct the assay under the zero-order kinetics, the high concentration of MP was selected (88 μM, >10Km).
Control Experiments with Small Esters Other Than Methyl Pyruvate. […] The data in FIG. 7 underline the uniqueness of the methyl pyruvate-based method for the quantification of LE as a biomarker of infection.

[2] = Solubility in water; type: physicochemical
[3] = Non-enzymatic hydrolysis in assay solution (steady current steps before LE addition); type: physicochemical; settings: pH 7.40 PBS assay solution, <200 s
Protocol: as §1
The slope of current segments at >200 s increased with the concentration of MP in a solution.

[4] = 1.4 nM LE, 25 mU AOx, 1-40 μM MP, Michaelis-Menten fit, RSD<10%

specificity constant kcatKm^−1 [1, 4]: 2.3e+06 M⁻¹ s⁻¹ | turnover number kcat [1, 4]: 15 s⁻¹ | recognition of ester by LE as substrate (ascending current segment after LE addition at 200 s) ([1]; 88 μM ester, 25 mU AO, N-CNT electrode −0.20 V, FIG. 7): produced the ascending current segment | average specific activity of LE reacting with MP (slope of LE activity vs. LE concentration) ([1]; 88 μM MP, 25 mU AOx, linear up to 260 μg L^−1 LE): 12 U mg^−1 | solubility in water [2]: good solubility in water | non-enzymatic hydrolysis [3]: slow on the experimental time scale
SMILES: COC(=O)C(C)=O [MP, Methyl pyruvate]
